Legend:
[1] = Metabolic stability in Hμrel human hepatocyte co-culture; details: human
[2] = test system: human hepatocytes (Hμrel HumanPool co-culture); assay: as above
human hepatocytes = assay: Metabolite identification in human hepatocyte suspension; details: 5-MeO-DMT free base 10 μM, incubated up to 120 minutes
Method: For incubations with cryopreserved hepatocytes, the 2 mM stock solution was diluted with Leibovitz L-15 medium to a concentration of 20 μM or 2 μM. An aliquot (250 μL) of the 20 μM and 2 μM test substance formulations was added to each hepatocyte incubation sample (250 μL), as appropriate, so that the final test substance concentration in the incubations was 10 μM or 1 μM, respectively, and incubations contained less than 1% (v/v) solvent.
Incubations were performed at ca. 37° C. in a shaking water bath (total incubation volume 0.5 mL). For 1 μM, incubations were terminated after 0, 5, 10, 20, 30, 60 and 120 minutes, by the addition of ice-cold acetonitrile (0.5 mL).
The samples were vortex mixed and centrifuged at ca 13,000 rpm for 10 minutes at room temperature. Following centrifugation, the protein-free supernatants were removed for analysis.
Blank control incubations were carried out with Leibovitz L-15 medium in place of the test substance. No cells control samples were performed with Leibovitz L-15 medium in place of hepatocytes. Aliquots of the blank control samples were taken at 120 minutes, while no cells control samples were taken at 0, 30 and 120 for 1 μM incubations and at 0 and 120 minutes for 10 μM incubations.
All 1 μM incubations were performed in duplicate, while all 10 μM incubations were performed in singlet. All samples were stored at −80° C. (nominal) prior to analysis.
Prior to sample analysis a 100 μL aliquot of each sample was evaporated to near dryness under a steady stream of nitrogen at room temperature, and subsequently reconstituted in 50 μL of mobile phase A (0.1% formic acid in water). Each sample (0, 30 and 120-minute, 10 μM) was analysed using accurate mass LC-MS to determine relative levels of parent compound at each time-point, and determine the profile of metabolites formed. Appropriate blank and control samples were also analysed. The 10 and 60-minute, 10 μM incubation samples were not analysed and were stored at −80° C. (nominal). […]

5-HT2A receptors = target: T1, 5-HT2A receptors (Homo sapiens, UniProt P28223); assay: Radioligand ([3H]MDL-100,907) binding to 5-HT2A receptors in post-mortem human frontal cortex membranes
T1 construct: frontal cortical membranes (400 μl; equivalent 4 mg wet weight tissue/tube) was incubated with 50 μl of 0.1 nM; tissue Edinburgh Sudden Death Brain Bank; host or cells: post-mortem human frontal cortex membranes

5-HT1A receptors = target: T2, 5-HT1A receptors (Homo sapiens, UniProt P08908); assay: Radioligand ([3H]8-OH-DPAT) binding to 5-HT1A receptors in post-mortem human hippocampus membranes
T2 construct: hippocampal membranes (400 μl; equivalent 1.25 mg wet weight tissue/tube) were incubated with 50 μl of 0.6 nM; tissue Edinburgh Sudden Death Brain Bank; host or cells: post-mortem human hippocampus membranes
T2 sequence (P08908 1-422): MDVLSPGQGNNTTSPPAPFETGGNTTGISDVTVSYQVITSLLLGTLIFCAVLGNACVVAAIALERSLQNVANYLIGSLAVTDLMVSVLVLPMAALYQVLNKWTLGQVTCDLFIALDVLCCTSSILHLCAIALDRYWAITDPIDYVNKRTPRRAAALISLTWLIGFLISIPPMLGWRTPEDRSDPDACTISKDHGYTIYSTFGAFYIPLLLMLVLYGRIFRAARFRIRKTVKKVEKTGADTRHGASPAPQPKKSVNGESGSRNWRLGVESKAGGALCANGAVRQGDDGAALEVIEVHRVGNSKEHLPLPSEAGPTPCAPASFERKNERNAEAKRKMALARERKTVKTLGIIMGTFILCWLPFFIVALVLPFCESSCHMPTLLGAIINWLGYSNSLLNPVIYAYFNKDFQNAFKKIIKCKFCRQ

[3] = Pharmacokinetics of 5-MeO-DMT and bufotenine after single inhaled dose; type: in vivo, human; details: from 15 min onwards after 5-MeO-DMT inhalation; LLOQ
Method: Blood samples were obtained at 1; 2; 4; 7; 10; 15; 20; 30; 45 min and 1; 1.5; 2; 3; 4 hours after administration.
PK parameters were generated by algebraic analysis of the concentration versus time plots for each individual. The analysis was carried out using the software Phoenix WinNonlin 6.3.

[4] = LC-MS/MS of 5-MeO-DMT, bufotenine and 5-MIAA in urine, serum and breastmilk of lactating PPD patient; infant exposure estimates; details: second patient
Source text: When determining the potential impact of maternal drug administration on a breastfed infant, it is standard practice to calculate the Relative Infant Dose (RID) (Bennett, P. N., and L. J. Notarianni. “Risk from drugs in breast milk: an analysis by relative dose.” Br J Clin Pharmacol 42.5 (1996): P673-4). The RID is the dosage (in μg/kg/day) the infant is exposed to by the intake of breast milk, divided by the dosage (in μg/kg/day) the mother receives.
Using estimates for daily intake of breast milk and the number of feeds as well as the measured breast milk concentrations the exposure of the infant can be determined.
For example, a published estimate for daily intake of breast milk as a function of infant weight is 150 ml/kg/day. To model the exposure, it is assumed that an infant of 5 kg is fed three times over 24 hours, receiving 250 ml breast milk each time.
The second patient was lactating, and, per the clinical trial protocol, breastmilk samples were collected pre-dosing and at multiple timepoints after administration of the last dose. […] Similar analyses were carried out on patient serum and urine samples.

T1 sequence (P28223 whole entry): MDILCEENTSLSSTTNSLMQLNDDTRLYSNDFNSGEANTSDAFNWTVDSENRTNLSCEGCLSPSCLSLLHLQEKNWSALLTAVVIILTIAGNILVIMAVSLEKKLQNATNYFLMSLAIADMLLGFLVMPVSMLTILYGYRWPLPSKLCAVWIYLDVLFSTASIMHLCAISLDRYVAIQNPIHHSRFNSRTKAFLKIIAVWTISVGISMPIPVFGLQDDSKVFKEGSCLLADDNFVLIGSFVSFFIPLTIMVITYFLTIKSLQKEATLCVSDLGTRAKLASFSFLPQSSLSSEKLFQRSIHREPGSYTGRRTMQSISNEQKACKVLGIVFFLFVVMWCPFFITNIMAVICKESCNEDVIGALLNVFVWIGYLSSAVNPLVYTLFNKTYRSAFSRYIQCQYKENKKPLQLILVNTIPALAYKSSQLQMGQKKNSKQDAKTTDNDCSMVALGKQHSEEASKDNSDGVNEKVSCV

## COc1ccc2[nH]cc(CCO)c2c1 [5-methoxytryptophol, 5-Methoxyindole-3-ethanol]
[1]
  half-life at 1 µM: 2.37 h
  hepatocyte CLint at 1 µM: 16.2 µL/min/1e6 cells
[2]; 0-72 h
  Disappearance with stromal cell controls: no disappearance
[2]; 1 μM Hepatocytes, 0 h
  Relative LC/MS peak area remaining: 100%
[2]; 1 μM Hepatocytes, 1 h
  Relative LC/MS peak area remaining: 79%
[2]; 1 μM Hepatocytes, 2 h
  Relative LC/MS peak area remaining: 57%
[2]; 1 μM Hepatocytes, 4 h
  Relative LC/MS peak area remaining: 33%
[2]; 1 μM Hepatocytes, 8 h
  Relative LC/MS peak area remaining: 10%
[2]; 1 μM Hepatocytes, 24 h
  Relative LC/MS peak area remaining: 0%
[2]; 1 μM Hepatocytes, 48 h
  Relative LC/MS peak area remaining: 0%
[2]; 1 μM Hepatocytes, 72 h
  Relative LC/MS peak area remaining: 0%
[2]; 1 μM Stromal cells, 0 h
  Relative LC/MS peak area remaining: 100%
[2]; 1 μM Stromal cells, 4 h
  Relative LC/MS peak area remaining: 97%
[2]; 1 μM Stromal cells, 8 h
  Relative LC/MS peak area remaining: 107%
[2]; 1 μM Stromal cells, 24 h
  Relative LC/MS peak area remaining: 94%
[2]; 1 μM Stromal cells, 48 h
  Relative LC/MS peak area remaining: 102%
[2]; 1 μM Stromal cells, 72 h
  Relative LC/MS peak area remaining: 104%
[2]; 10 μM Hepatocytes, 0 h
  Relative LC/MS peak area remaining: 100%
[2]; 10 μM Hepatocytes, 1 h
  Relative LC/MS peak area remaining: 87%
[2]; 10 μM Hepatocytes, 2 h
  Relative LC/MS peak area remaining: 81%
[2]; 10 μM Hepatocytes, 4 h
  Relative LC/MS peak area remaining: 68%
[2]; 10 μM Hepatocytes, 8 h
  Relative LC/MS peak area remaining: 42%
[2]; 10 μM Hepatocytes, 24 h
  Relative LC/MS peak area remaining: 1%
[2]; 10 μM Hepatocytes, 48 h
  Relative LC/MS peak area remaining: 0%
[2]; 10 μM Hepatocytes, 72 h
  Relative LC/MS peak area remaining: 0%
[2]; 10 μM Stromal cells, 0 h
  Relative LC/MS peak area remaining: 100%
[2]; 10 μM Stromal cells, 4 h
  Relative LC/MS peak area remaining: 99%
[2]; 10 μM Stromal cells, 8 h
  Relative LC/MS peak area remaining: 105%
[2]; 10 μM Stromal cells, 24 h
  Relative LC/MS peak area remaining: 86%
[2]; 10 μM Stromal cells, 48 h
  Relative LC/MS peak area remaining: 98%
[2]; 10 μM Stromal cells, 72 h
  Relative LC/MS peak area remaining: 104%
[2]; 24h
  Metabolic turnover in the presence of hepatocytes: complete disappearance
[2]; human
  Predicted hepatic extraction ratio: 67%
Human hepatocytes
  Relative Proportion of compounds identified: 25%

## CN(C)CCc1c[nH]c2ccccc12 [DMT, N,N-dimethyltryptamine]
5-HT2A receptors
  Ki: 117 nM

## CN(C)CCc1c[nH]c2cccc(O)c12 [psilocin]
5-HT1A receptors
  Ki: 48 nM

## CN(C)CCc1c[nH]c2ccc(O)cc12 [Bufotenine]
[3]
  Blood concentration of metabolite bufotenine: < 0.025 ng/mL
[4]; 1.0 hrs after last dose
  Breastmilk concentration: BLQ (Below limit of quantification. The lower limit of quantification is 25 pg/ml for both 5-MeO-DMT and 5-MIAA in both serum and breastmilk; it is 25 pg/ml in urine for 5-MeO-DMT and 250 pg/ml for 5-MIAA in urine.)
  Serum concentration: BLQ (Below limit of quantification. The lower limit of quantification is 25 pg/ml for both 5-MeO-DMT and 5-MIAA in both serum and breastmilk; it is 25 pg/ml in urine for 5-MeO-DMT and 250 pg/ml for 5-MIAA in urine.)
[4]; 2.5 hrs after last dose
  Breastmilk concentration: BLQ (Below limit of quantification. The lower limit of quantification is 25 pg/ml for both 5-MeO-DMT and 5-MIAA in both serum and breastmilk; it is 25 pg/ml in urine for 5-MeO-DMT and 250 pg/ml for 5-MIAA in urine.)
  Serum concentration: BLQ (Below limit of quantification. The lower limit of quantification is 25 pg/ml for both 5-MeO-DMT and 5-MIAA in both serum and breastmilk; it is 25 pg/ml in urine for 5-MeO-DMT and 250 pg/ml for 5-MIAA in urine.)
[4]; 8.5 hrs after last dose
  Breastmilk concentration: BLQ (Below limit of quantification. The lower limit of quantification is 25 pg/ml for both 5-MeO-DMT and 5-MIAA in both serum and breastmilk; it is 25 pg/ml in urine for 5-MeO-DMT and 250 pg/ml for 5-MIAA in urine.)
  Urine concentration: BLQ (Below limit of quantification. The lower limit of quantification is 25 pg/ml for both 5-MeO-DMT and 5-MIAA in both serum and breastmilk; it is 25 pg/ml in urine for 5-MeO-DMT and 250 pg/ml for 5-MIAA in urine.)
[4]; 24.0 hrs after last dose
  Breastmilk concentration: BLQ (Below limit of quantification. The lower limit of quantification is 25 pg/ml for both 5-MeO-DMT and 5-MIAA in both serum and breastmilk; it is 25 pg/ml in urine for 5-MeO-DMT and 250 pg/ml for 5-MIAA in urine.)
  Serum concentration: BLQ (Below limit of quantification. The lower limit of quantification is 25 pg/ml for both 5-MeO-DMT and 5-MIAA in both serum and breastmilk; it is 25 pg/ml in urine for 5-MeO-DMT and 250 pg/ml for 5-MIAA in urine.)
  Urine concentration: BLQ (Below limit of quantification. The lower limit of quantification is 25 pg/ml for both 5-MeO-DMT and 5-MIAA in both serum and breastmilk; it is 25 pg/ml in urine for 5-MeO-DMT and 250 pg/ml for 5-MIAA in urine.)
[4]; 120.0 hrs after last dose
  Breastmilk concentration: BLQ (Below limit of quantification. The lower limit of quantification is 25 pg/ml for both 5-MeO-DMT and 5-MIAA in both serum and breastmilk; it is 25 pg/ml in urine for 5-MeO-DMT and 250 pg/ml for 5-MIAA in urine.)
  Serum concentration: BLQ (Below limit of quantification. The lower limit of quantification is 25 pg/ml for both 5-MeO-DMT and 5-MIAA in both serum and breastmilk; it is 25 pg/ml in urine for 5-MeO-DMT and 250 pg/ml for 5-MIAA in urine.)
  Urine concentration: BLQ (Below limit of quantification. The lower limit of quantification is 25 pg/ml for both 5-MeO-DMT and 5-MIAA in both serum and breastmilk; it is 25 pg/ml in urine for 5-MeO-DMT and 250 pg/ml for 5-MIAA in urine.)
[4]; −24.0 hrs (pre-dosing)
  Breastmilk concentration: BLQ (Below limit of quantification. The lower limit of quantification is 25 pg/ml for both 5-MeO-DMT and 5-MIAA in both serum and breastmilk; it is 25 pg/ml in urine for 5-MeO-DMT and 250 pg/ml for 5-MIAA in urine.)
  Serum concentration: BLQ (Below limit of quantification. The lower limit of quantification is 25 pg/ml for both 5-MeO-DMT and 5-MIAA in both serum and breastmilk; it is 25 pg/ml in urine for 5-MeO-DMT and 250 pg/ml for 5-MIAA in urine.)
  Urine concentration: BLQ (Below limit of quantification. The lower limit of quantification is 25 pg/ml for both 5-MeO-DMT and 5-MIAA in both serum and breastmilk; it is 25 pg/ml in urine for 5-MeO-DMT and 250 pg/ml for 5-MIAA in urine.)
Human hepatocytes
  Relative Proportion of compounds identified: 5%
